# Assay results as given in patent publication US11382902B2, “Treatment of cancer by stimulation of IL-12 production” (Macrophage Pharma Limited, priority 2017, dated 2022).
# Key:
# [1] = test system: IL-12p70 production in PBMCs stimulated with LPS; assay: Stimulation of IL-12p70 in human PBMCs stimulated with LPS (ELISA / multiplex immunoassay); format: cell-based; details: PBMC, LPS 1 μg/mL, 72 hrs culture, read-out: Stimulation of IL-12p70 in PBMC's stimulated with LPS EC50
# Method: (§1) Human PBMCs from six healthy donors were isolated from whole blood. PBMCs were resuspended in RPMI-10 at 1×10^6/mL and plated at a density of 2×10^5 per well (200 μL) in 96-well round bottom culture plates. Treatments or reference controls at different concentrations were prepared in DMSO according to client/supplier instruction and added directly to wells at a final volume of 0.2 μL per well (1:1000). After 2 hours, LPS was added to the culture (1 μg/mL final, 10 μL per well). Cells were cultured for 72 hrs at 37° C. and 5% CO2. Cell-free supernatants were collected at the end of culture period, transferred to new 96-well plates and frozen at −80° C. prior to assessment of IFN-γ, IL-10, IL-12p70 and TNF-α by ELISA and multiplex immunoassay.
# (§2) Cultures were performed in triplicate to provide technical replicates and PBMCs from six healthy donors were included to provide biological replication.
# (§3) All test and reference substances were formulated at 10 mM stock concentration in anhydrous DMSO, filtered and frozen in aliquots. Immediately prior to addition to assay, stock solutions were diluted in DMSO to prepare solutions at 1000 times the final required concentration. All final formulations were freshly prepared and kept sterile and light protected prior to the addition in cultures.
# (§4) ELISA plates were read at 450 nm using an Infinite F50 (Tecan) absorbance reader and Magellan™ reader control and data analysis software. Multiplex immunoassays were read using a Luminex MAGPIX multiplexing system and ProcartaPlex Analyst 1.0 software. Graphs were prepared using Graphpad Prism (v6.0). Data were normalised to mean of respective vehicle control group (100%) within each biological replicate to account for donor variation.
# [2] = test system: IL10 production in PBMCs stimulated with LPS; assay: Inhibition of IL10 in human PBMCs stimulated with LPS (ELISA / multiplex immunoassay); format: cell-based; details: for IC50: PBMC, human PBMCs, LPS 1 μg/mL, 72 hrs culture, read-out: Inhibition of IL10 in PBMC's stimulated with LPS IC50
# Method: as §1, §2, §3, §4
# [3] = biological target: p38 MAPK (Homo sapiens, UniProt Q16539); assay: Inhibition of p38 MAPK; format: biochemical
# [4] = test system: IFN-γ production in PBMCs stimulated with LPS; assay: Stimulation of IFN-γ in human PBMCs stimulated with LPS (ELISA / multiplex immunoassay); format: cell-based; details: LPS 1 μg/mL, 72 hrs culture
# Method: as §1, §2, §3, §4
# [5] = versus 6-Amino-5-(2,4-difluorobenzoyl)-1-[2,6-difluorophenyl]pyridin-2(1H)-one and PH797804
# Sequence of p38 MAPK (Q16539 whole entry): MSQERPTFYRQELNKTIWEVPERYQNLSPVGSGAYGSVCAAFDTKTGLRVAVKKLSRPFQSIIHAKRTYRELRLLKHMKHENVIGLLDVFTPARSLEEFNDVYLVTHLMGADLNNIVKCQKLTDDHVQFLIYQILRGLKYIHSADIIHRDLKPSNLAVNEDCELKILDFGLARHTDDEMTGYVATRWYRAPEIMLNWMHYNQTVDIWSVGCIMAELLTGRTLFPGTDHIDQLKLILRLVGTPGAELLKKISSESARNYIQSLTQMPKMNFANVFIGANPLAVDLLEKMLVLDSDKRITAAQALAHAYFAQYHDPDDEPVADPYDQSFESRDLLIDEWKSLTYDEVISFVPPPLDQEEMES
Structure (SMILES),EC50 [1] [nM],IC50 [2] [nM],EC50 [3] [nM],Stimulation of INF-γ in PBMCs stimulated with LPS EC50 (nM) [4],"IL10 production inhibited at concentrations fold lower than conventional p38 MAPK inhibitors [2, 5]","Fold less potent inhibitory activity against p38 MAPK than the reference inhibitors [3, 5] [fold]","EC50 ([4]; PBMC, read-out: Stimulation of INF-γ in PBMCs stimulated with LPS EC50) [nM]"
"Nc1c(C(=O)c2ccc(F)cc2F)ccc(=O)n1-c1c(F)cccc1F [6-Amino-5-(2,4-difluorobenzoyl)-1-[2,6-difluorophenyl]pyridin-2(1H)-one]",> 300,10,< 1,No stimulation,–,–,–
"CNC(=O)c1ccc(C)c(-n2c(C)cc(OCc3ccc(F)cc3F)c(Br)c2=O)c1 [PH797804, 3-[3-Bromo-4-[(2,4-difluorophenyl)methoxy]-6-methyl-2-oxo-1(2H)-pyridinyl]-N,4-dimethyl-benzamide]",> 300,10,–,No stimulation,–,–,–
"C[C@H](NCCc1cc(F)c(-n2c(N)c(C(=O)c3ccc(F)cc3F)ccc2=O)c(F)c1)C(=O)OC(C)(C)C [tert-Butyl N-(2-{4-[6-amino-5-(2,4-difluorobenzoyl)-2-oxopyridin-1(2H)-yl]-3,5-difluorophenyl}ethyl)-L-alaninate]",< 1,< 1,12,–,at least 10 fold,10,1
